Experimental data taken from the supplement of paper PMC10307832.

Legend:
Experiment in all cases: relative viability (nuclei count vs DMSO), 5 days (fraction); higher = more cells survive
Tanzisertib + Alpelisib = compound: O[C@H]1CC[C@H](Nc2ncc3nc(Nc4c(F)cc(F)cc4F)n([C@H]4CCOC4)c3n2)CC1 [Tanzisertib] + Cc1nc(NC(=O)N2CCC[C@H]2C(N)=O)sc1-c1ccnc(C(C)(C)C(F)(F)F)c1 [Alpelisib] (partner 2 µM)
Outline: (§1)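 Cells from lung cancer lines were seeded into 1536-well plates and, one day later, dosed by pin tool. Treatments were either a single drug or a fixed dose of an anchor drug with five library-drug doses (not always all listed) in √10 steps. After 5 days, nuclei were stained in a one-step fixation (final 0.05% Triton X-100, 1% formaldehyde, 1 ug/ml Hoechst) and counted on 4× images, and relative viability is the treated-to-vehicle nuclei ratio, as the median of duplicate plates.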

Tanzisertib + OSI-027 = compound: O[C@H]1CC[C@H](Nc2ncc3nc(Nc4c(F)cc(F)cc4F)n([C@H]4CCOC4)c3n2)CC1 [Tanzisertib] + COc1cccc2cc(-c3nc([C@H]4CC[C@H](C(=O)O)CC4)n4ncnc(N)c34)[nH]c12 [OSI-027] (partner 0.5 µM)
Outline: as §1

Tanzisertib + Crizotinib = compound: O[C@H]1CC[C@H](Nc2ncc3nc(Nc4c(F)cc(F)cc4F)n([C@H]4CCOC4)c3n2)CC1 [Tanzisertib] + C[C@@H](Oc1cc(-c2cnn(C3CCNCC3)c2)cnc1N)c1c(Cl)ccc(F)c1Cl [Crizotinib] (partner 1 µM)
Outline: as §1

Tanzisertib + Foretinib = compound: O[C@H]1CC[C@H](Nc2ncc3nc(Nc4c(F)cc(F)cc4F)n([C@H]4CCOC4)c3n2)CC1 [Tanzisertib] + COc1cc2c(Oc3ccc(NC(=O)C4(C(=O)Nc5ccc(F)cc5)CC4)cc3F)ccnc2cc1OCCCN1CCOCC1 [Foretinib] (partner 0.25 µM)
Outline: as §1

| Cell Line | relative viability (Tanzisertib + Alpelisib; first compound 0.08 µM) | relative viability (Tanzisertib + Alpelisib; first compound 0.253 µM) | relative viability (Tanzisertib + Alpelisib; first compound 0.8 µM) | relative viability (Tanzisertib + Alpelisib; first compound 2.53 µM) | relative viability (Tanzisertib + Alpelisib; first compound 8 µM) | relative viability (Tanzisertib + OSI-027; first compound 0.08 µM) | relative viability (Tanzisertib + OSI-027; first compound 0.253 µM) | relative viability (Tanzisertib + OSI-027; first compound 0.8 µM) | relative viability (Tanzisertib + OSI-027; first compound 2.53 µM) | relative viability (Tanzisertib + OSI-027; first compound 8 µM) | relative viability (Tanzisertib + Crizotinib; first compound 0.08 µM) | relative viability (Tanzisertib + Crizotinib; first compound 0.253 µM) | relative viability (Tanzisertib + Crizotinib; first compound 0.8 µM) | relative viability (Tanzisertib + Crizotinib; first compound 2.53 µM) | relative viability (Tanzisertib + Crizotinib; first compound 8 µM) | relative viability (Tanzisertib + Foretinib; first compound 0.08 µM) | relative viability (Tanzisertib + Foretinib; first compound 0.253 µM) | relative viability (Tanzisertib + Foretinib; first compound 0.8 µM) | relative viability (Tanzisertib + Foretinib; first compound 2.53 µM) | relative viability (Tanzisertib + Foretinib; first compound 8 µM) |
| --- | --- | --- | --- | --- | --- | --- | --- | --- | --- | --- | --- | --- | --- | --- | --- | --- | --- | --- | --- | --- |
| NCI-H647 | 1.12 | 1.31 | 1.16 | 1.26 | 1.08 | 0.694 | 0.644 | 0.569 | 0.63 | 0.69 | 1.12 | 0.975 | 1.09 | 1.14 | 1.01 | 1.23 | 1.25 | 1.11 | 1.29 | 1.12 |
| NCI-H650 | 1.1 | 1.19 | 1.18 | 1.21 | 1.18 | 0.517 | 0.661 | 0.508 | 0.624 | 0.441 | 0.725 | 0.686 | 0.712 | 0.881 | 0.636 | 0.979 | 1.07 | 1.04 | 1.09 | 1.08 |
| NCI-H661 | 0.84 | 0.716 | 0.561 | 0.527 | 0.412 | 0.771 | 0.741 | 0.615 | 0.704 | 0.655 | 1.04 | 0.939 | – | 1.02 | 0.991 | 1.07 | 0.999 | 1 | 1.04 | 0.995 |
| NCI-H727 | 0.511 | 0.463 | 0.654 | 0.515 | 0.684 | 0.618 | 0.564 | 0.643 | 0.483 | 0.647 | 0.797 | 0.853 | 0.787 | 1.02 | 0.832 | 0.88 | 1.02 | 0.662 | 0.936 | 0.91 |
| NCI-H838 | 1.02 | 1 | 0.92 | 0.965 | 0.973 | 0.401 | 0.426 | 0.453 | 0.418 | 0.4 | 0.892 | 0.849 | 0.875 | 0.88 | 0.885 | 1.1 | 1.01 | 1.11 | 1.02 | 0.937 |
| NCI-H1355 | 0.838 | 0.871 | 0.886 | 0.864 | 0.881 | 0.479 | 0.425 | 0.445 | 0.423 | 0.371 | 1.12 | 1.11 | 1.06 | 1.08 | 1.06 | 1.03 | 0.961 | 0.965 | 1.04 | 0.948 |
| NCI-H1437 | 0.998 | 1 | 0.964 | 0.958 | 0.722 | 0.85 | 0.822 | 0.943 | 0.902 | 0.908 | 1.07 | 0.89 | 0.94 | 1.01 | 0.919 | 1.26 | 1.31 | 1.32 | 1.42 | 1.29 |
| NCI-H1563 | 0.92 | 0.935 | 0.875 | 0.862 | 0.977 | 0.789 | 0.731 | 0.722 | 0.731 | 0.704 | 0.85 | 0.937 | 0.869 | 0.966 | 0.79 | 0.983 | 0.854 | 0.896 | 0.96 | 0.72 |
